According to patent US9127040B2, “Regulation of sodium channels by PLUNC proteins” (The University of North Carolina at Chapel Hill, priority 2011, dated 2015):
Ends that are not written are not given here.

How the values were obtained:
Assay in all cases: Whole-cell patch-clamp currents in CHO cells stably expressing ASIC
Type in all cases: cell-based
Settings in all cases: 10 μM S18
[1] = biological target: T1, rat ASIC3 (Rattus norvegicus, UniProt O35240)
T1 construct: expressed in transfected cells
T1 sequence (O35240 whole entry): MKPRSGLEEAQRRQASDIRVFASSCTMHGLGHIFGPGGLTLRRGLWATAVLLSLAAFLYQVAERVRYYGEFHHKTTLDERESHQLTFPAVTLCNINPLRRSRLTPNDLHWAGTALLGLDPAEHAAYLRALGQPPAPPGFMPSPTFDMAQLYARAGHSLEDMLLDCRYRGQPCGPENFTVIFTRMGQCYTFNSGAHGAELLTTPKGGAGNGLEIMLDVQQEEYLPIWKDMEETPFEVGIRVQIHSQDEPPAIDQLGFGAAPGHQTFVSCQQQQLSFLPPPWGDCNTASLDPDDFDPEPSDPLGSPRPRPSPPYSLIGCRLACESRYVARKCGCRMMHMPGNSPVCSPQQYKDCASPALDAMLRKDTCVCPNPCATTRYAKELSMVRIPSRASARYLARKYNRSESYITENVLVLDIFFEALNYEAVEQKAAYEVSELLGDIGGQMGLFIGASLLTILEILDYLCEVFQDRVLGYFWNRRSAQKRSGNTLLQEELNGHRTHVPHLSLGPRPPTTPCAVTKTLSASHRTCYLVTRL
Method: (§1) Previously described cell lines expressing human ASIC1a, human ASIC2a and rat ASIC3 were used in these experiments (Poirot, J. Biol. Chem. 279: 38448 (2004))). Electrophysiological measurements were carried out with an EPC10 patch-clamp amplifier (HEKA Electronics, Lambrecht, Germany) as previously described (Blanchard et al., Pflugers Arch. 461:123 (2011)).
(§2) Whole-cell currents were measured from CHO cells stably expressing acid-sensing ion channel (ASIC) subunits, voltage clamped to −60 mV. Stimulations lasted 5 s and were performed every 45 s. Cells were stimulated three times with pH 6.6 (ASIC1a and -3) or pH 4 (ASIC2a). Between stimulations, cells were returned to a pH 7.4 conditioning solution for […] recovery from inactivation. The conditioning solution was then switched to a pH 7.4 solution containing 10 μM S18. Three stimulations in the presence of 10 μM S18 were performed before washing off the peptide. Current amplitudes of the above described experiments were normalized to the first control value and plotted as a function of time (FIG. 28B). S18 was added at T=0 s. ASIC1a=▪, ASIC2a=●, ASIC3=▴, all n=3. Cells were incubated for 40 s in a pH 7.1 (ASIC1a and -3) or 5.6 (ASIC2a) conditioning solution, then activated using an acidic stimulus (pH 5 for ASIC1a and -3, and pH 4 for ASIC2a) (FIG. 28C). Experiments were performed with or without 10 μM S18 in the conditioning solution. Current amplitudes measured during the acidic stimulus were normalized to the control amplitude obtained with a pH 7.4 conditioning solution. Open bars=control, closed bars=S18, all n=3-4. […] Stimulations were performed every 45 s. The protocol was performed with or without 10 μM S18 in all solutions. The average current is plotted as a function of time. […] Control=∘, S18=▪, all n=3-5.

[2] = biological target: T2, human ASIC2a (Homo sapiens, UniProt Q16515)
T2 construct: expressed in transfected cells
T2 sequence (Q16515 whole entry): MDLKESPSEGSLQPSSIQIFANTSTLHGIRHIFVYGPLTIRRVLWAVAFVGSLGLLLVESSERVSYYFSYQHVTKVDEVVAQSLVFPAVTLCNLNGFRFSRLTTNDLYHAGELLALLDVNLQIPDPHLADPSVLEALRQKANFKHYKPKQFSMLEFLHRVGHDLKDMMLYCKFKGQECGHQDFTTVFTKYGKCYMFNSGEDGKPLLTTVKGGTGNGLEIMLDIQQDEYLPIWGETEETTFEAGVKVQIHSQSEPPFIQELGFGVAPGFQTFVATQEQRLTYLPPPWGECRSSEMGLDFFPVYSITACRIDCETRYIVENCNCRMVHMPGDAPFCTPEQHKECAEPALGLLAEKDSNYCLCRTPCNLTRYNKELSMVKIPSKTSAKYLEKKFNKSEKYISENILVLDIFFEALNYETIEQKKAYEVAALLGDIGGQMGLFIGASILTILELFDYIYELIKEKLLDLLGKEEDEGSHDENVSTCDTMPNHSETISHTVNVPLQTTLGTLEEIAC
Method: as §1, §2

[3] = biological target: T3, human ASIC1a (Homo sapiens, UniProt P78348)
T3 construct: expressed in transfected cells
T3 sequence (P78348 whole entry): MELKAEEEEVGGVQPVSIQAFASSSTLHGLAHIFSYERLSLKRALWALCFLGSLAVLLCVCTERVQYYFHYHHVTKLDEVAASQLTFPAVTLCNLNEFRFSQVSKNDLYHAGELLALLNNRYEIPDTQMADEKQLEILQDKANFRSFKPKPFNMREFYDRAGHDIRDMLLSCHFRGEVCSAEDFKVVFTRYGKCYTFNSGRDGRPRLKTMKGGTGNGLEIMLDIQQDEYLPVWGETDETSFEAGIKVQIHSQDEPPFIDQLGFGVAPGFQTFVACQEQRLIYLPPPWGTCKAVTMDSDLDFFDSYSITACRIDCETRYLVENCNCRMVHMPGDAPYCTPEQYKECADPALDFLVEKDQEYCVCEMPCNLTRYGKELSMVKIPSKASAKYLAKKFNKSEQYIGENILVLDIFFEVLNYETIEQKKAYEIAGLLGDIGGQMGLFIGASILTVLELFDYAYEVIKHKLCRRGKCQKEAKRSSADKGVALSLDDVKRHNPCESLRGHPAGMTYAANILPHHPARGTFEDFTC
Method: as §1, §2

GGLPVPLDQTLPLNVNPA [S18]
does not Affect the Function: function of ASIC3 channels [1] | function of ASIC2a channels [2] | function of ASIC1a channels [3]
